Measurements from patent publication US11718626B2, “Macrocyclic compounds for treatment of medical disorders” (Achillion Pharmaceuticals, Inc., priority 2017, dated 2023).
Where “and” joins values, the source holds several entries; their conditions need not be identical. Identical values can stand only once. Like-named read-outs stand apart in the source and are kept apart here.

What was measured:
[1] = rcm bond, toluene, 80.0 °C
[2] = rcm bond, Grubbs II, toluene, 80.0 °C

CC(=O)c1nn2c3c(cc(-c4cnc(C)nc4)cc13)CCCCC=CCc1cccc(c1)COC[C@@]13C[C@@H](C(=O)Nc4nc(Br)ccc4C)N(C(=O)C2)[C@@H]1C3
ring closure, isolated yield ([1]; from C=CCCCCc1cc(-c2cnc(C)nc2)cc2c(C(C)=O)nn(CC(=O)N3[C@H](C(=O)Nc4nc(Br)ccc4C)C[C@@]4(COCc5cccc(CC=C)c5)C[C@@H]34)c12, 21-membered ring, Grubbs II, 1.83 mM, 16.0 h): 40.9%

CC(=O)c1nn2c3c(cc(-c4cnc(C)nc4)cc13)CCCCCCC=Cc1cn(nn1)C[C@@]13C[C@@H](C(=O)Nc4nc(Br)ccc4C)N(C(=O)C2)[C@@H]1C3
ring closure, yield after HPLC ([2]; from C=CCCCCCCc1cc(-c2cnc(C)nc2)cc2c(C(C)=O)nn(CC(=O)N3[C@H](C(=O)Nc4nc(Br)ccc4C)C[C@@]4(Cn5cc(C=C)nn5)C[C@@H]34)c12, 20-membered ring, 2.6 mM, 16.0 h): 3.97%
ring closure, yield after HPLC ([2]; from C=CCCCCCCc1cc(-c2cnc(C)nc2)cc2c(C(C)=O)nn(CC(=O)N3[C@H](C(=O)Nc4nc(Br)ccc4C)C[C@@]4(Cn5cc(C=C)nn5)C[C@@H]34)c12, 2.6 mM, 16.0 h): 6.93%
ring closure, isolated yield ([1]; from C=CCCCCCCc1cc(-c2cnc(C)nc2)cc2c(C(C)=O)nn(CC(=O)N3[C@H](C(=O)Nc4nc(Br)ccc4C)C[C@@]4(Cn5cc(C=C)nn5)C[C@@H]34)c12, 20-membered ring, Grubbs II, 2.6 mM, 16.0 h): 59.4%

CC(=O)c1nn2c3c(nc(-c4cnc(C)nc4)cc13)CC=CCCCC(=O)NC[C@@]13C[C@@H](C(=O)Nc4nc(C(F)(F)F)ccc4C)N(C(=O)C2)[C@@H]1C3
ring closure, yield after HPLC ([2]; from C=CCCCC(=O)NC[C@@]12C[C@@H](C(=O)Nc3nc(C(F)(F)F)ccc3C)N(C(=O)Cn3nc(C(C)=O)c4cc(-c5cnc(C)nc5)nc(CC=C)c43)[C@@H]1C2, 17-membered ring, 1.4 mM): 26.9%

CC(C)(C)OC(=O)N1[C@H]2C[C@@]3(CNC(=O)C(F)(F)CC=CCOCc4ccc(Br)nc4NC2=O)C[C@@H]13
ring closure, isolated yield ([1]; from C=CCOCc1ccc(Br)nc1NC(=O)[C@@H]1C[C@@]2(CNC(=O)C(F)(F)CC=C)C[C@H]2N1C(=O)OC(C)(C)C, 17-membered ring, Grubbs II, 2.0 mM): 96.5%

tert-Butyl (42S,44R,E)-16-Bromo-44-fluoro-3-oxo-6-oxa-2-aza-1(2,3)-pyridina-4(2,4)-pyrrolidinacyclotridecaphan-12-ene-41-carboxylate
ring closure, isolated yield ([1]; 16-membered ring, Grubbs II, 1.83 mM): 59.3%

CC(C)(C)OC(=O)N1[C@H]2C[C@@]3(Cc4nc(no4)C=CCOCc4ccc(Br)nc4NC2=O)C[C@@H]13
ring closure, isolated yield ([1]; from C=CCOCc1ccc(Br)nc1NC(=O)[C@@H]1C[C@@]2(Cc3nc(C=C)no3)C[C@H]2N1C(=O)OC(C)(C)C, 16-membered ring, Zhan-1B, 1.75 mM, 16.0 h): 56.2%

CC(C)(C)OC(=O)N1[C@H]2C[C@@]3(CNC(=O)C(C)(C)CC=CCOCc4ccc(Br)nc4NC2=O)C[C@@H]13
ring closure, isolated yield ([1]; from C=CCOCc1ccc(Br)nc1NC(=O)[C@@H]1C[C@@]2(CNC(=O)C(C)(C)CC=C)C[C@H]2N1C(=O)OC(C)(C)C, 17-membered ring, Grubbs II, 3.14 mM, 16.0 h): 83.1%

CC(=O)c1nn2c3c(cc(-c4cnc(C)nc4)cc13)C=CCCCCCN(C)C[C@@]13C[C@@H](C(=O)Nc4nc(Br)ccc4C)N(C(=O)C2)[C@@H]1C3
ring closure, isolated yield ([1]; from C=CCCCCCN(C)C[C@@]12C[C@@H](C(=O)Nc3nc(Br)ccc3C)N(C(=O)Cn3nc(C(C)=O)c4cc(-c5cnc(C)nc5)cc(C=C)c43)[C@@H]1C2, 17-membered ring, Zhan-1B, 4.38 mM): 47.4%

CC(=O)c1nn2c3cc(ccc13)NC(=O)OCCCCC=CCOC[C@@]13C[C@@H](C(=O)Nc4nc(Br)ccc4C)N(C(=O)C2)[C@@H]1C3
ring closure, isolated yield ([1]; from C=CCCCCOC(=O)Nc1ccc2c(C(C)=O)nn(CC(=O)N3[C@H](C(=O)Nc4nc(Br)ccc4C)C[C@@]4(COCC=C)C[C@@H]34)c2c1, 21-membered ring, Grubbs II, 1.7 mM, 16.0 h): 51.2%

CC(=O)c1nn2c3cc(ccc13)C(=O)NCCCCC=CCOC[C@@]13C[C@@H](C(=O)Nc4nc(Br)ccc4C)N(C(=O)C2)[C@@H]1C3
ring closure, isolated yield ([1]; from C=CCCCCNC(=O)c1ccc2c(C(C)=O)nn(CC(=O)N3[C@H](C(=O)Nc4nc(Br)ccc4C)C[C@@]4(COCC=C)C[C@@H]34)c2c1, 20-membered ring, Grubbs II, 1.44 mM, 16.0 h): 45.6%

CN1CCCCC=CCc2ccc(Br)nc2NC(=O)[C@@H]2C[C@]3(C[C@H]3N2C(=O)OC(C)(C)C)C1
ring closure, isolated yield ([1]; from C=CCCCCN(C)C[C@@]12C[C@@H](C(=O)Nc3nc(Br)ccc3CC=C)N(C(=O)OC(C)(C)C)[C@@H]1C2, 16-membered ring, Grubbs II, 1.83 mM): 93.5%

CC(=O)c1nn2c3cc(c(-c4cnc(C)nc4)cc13)OCCCCC=CCOC[C@@]13C[C@@H](C(=O)Nc4nc(Br)ccc4C)N(C(=O)C2)[C@@H]1C3
ring closure, yield after HPLC ([2]; from C=CCCCCOc1cc2c(cc1-c1cnc(C)nc1)c(C(C)=O)nn2CC(=O)N1[C@H](C(=O)Nc2nc(Br)ccc2C)C[C@@]2(COCC=C)C[C@@H]12, 18-membered ring, 1.32 mM, 16.0 h): 10.6% and 7.07%

Cc1ncc(-c2cc3c(C#N)nn4c3c(n2)CC=CCCCC(=O)NC[C@@]23C[C@@H](C(=O)Nc5nc(Br)ccc5C)N(C(=O)C4)[C@@H]2C3)cn1
ring closure, isolated yield ([1]; from C=CCCCC(=O)NC[C@@]12C[C@@H](C(=O)Nc3nc(Br)ccc3C)N(C(=O)Cn3nc(C#N)c4cc(-c5cnc(C)nc5)nc(CC=C)c43)[C@@H]1C2, 17-membered ring, Grubbs II, 1.27 mM, 16.0 h): 44.8%

CC(C)(C)OC(=O)N1[C@H]2C[C@@]3(CCCC=CCOCc4ccc(Br)nc4NC2=O)C[C@@H]13
ring closure, isolated yield ([1]; from C=CCCC[C@@]12C[C@@H](C(=O)Nc3nc(Br)ccc3COCC=C)N(C(=O)OC(C)(C)C)[C@@H]1C2, 15-membered ring, Grubbs II, 1.87 mM): 70.4%

CC(=O)c1nn2c3c(cc(-c4cnc(C)nc4)cc13)CC=CCCCC(=O)N(C)C[C@@]13C[C@@H](C(=O)Nc4ccc(C)c(C(F)(F)F)n4)N(C(=O)C2)[C@@H]1C3
ring closure, isolated yield ([1]; from C=CCCCC(=O)N(C)C[C@@]12C[C@@H](C(=O)Nc3ccc(C)c(C(F)(F)F)n3)N(C(=O)Cn3nc(C(C)=O)c4cc(-c5cnc(C)nc5)cc(CC=C)c43)[C@@H]1C2, 17-membered ring, Grubbs II, 1.24 mM): 70.6%

CC(=O)c1nn2c3c(cc(-c4cnc(C)nc4)cc13)CCCCCCC=CCOC[C@@]13C[C@@H](C(=O)Nc4nc(Br)ccc4C)N(C(=O)C2)[C@@H]1C3
ring closure, isolated yield ([1]; from C=CCCCCCCc1cc(-c2cnc(C)nc2)cc2c(C(C)=O)nn(CC(=O)N3[C@H](C(=O)Nc4nc(Br)ccc4C)C[C@@]4(COCC=C)C[C@@H]34)c12, 19-membered ring, Grubbs II, 3.0 mM, 4.0 h): 88.7%

CC(=O)c1nn2c3c(cc(-c4cnc(C)nc4)cc13)CCCCC=CCC=C[C@@]13C[C@@H](C(=O)Nc4nc(Br)ccc4C)N(C(=O)C2)[C@@H]1C3
ring closure, isolated yield ([1]; from C=CCC=C[C@@]12C[C@@H](C(=O)Nc3nc(Br)ccc3C)N(C(=O)Cn3nc(C(C)=O)c4cc(-c5cnc(C)nc5)cc(CCCCC=C)c43)[C@@H]1C2, 17-membered ring, Grubbs II, 2.27 mM, 16.0 h): 21.8%

tert-Butyl (41R,43S,45R,E)-16-Bromo-8,8-difluoro-3,7-dioxo-13-oxa-42,2,6-triaza-1(2,3)-pyridina-4(3,5)-bicyclo[3.1.0]hexanacyclotetradecaphan-10-ene-42-carboxylate
ring closure, isolated yield ([1]; 17-membered ring, Grubbs II, 2.0 mM): 96.5%

(41R,43S,45S,E)-13-Acetyl-N-(6-bromo-3-methylpyridin-2-yl)-3,14-dioxo-11H-6,15-dioxa-42,13-diaza-1(1,6)-indazola-4(2,5)-bicyclo[3.1.0]hexanacyclopentadecaphan-8-ene-43-carboxamide
ring closure, isolated yield ([1]; 20-membered ring, Grubbs II, 1.48 mM): 4.1%

CC(=O)c1nn2c3cc(ccc13)NC(=O)NCCCC=CCOC[C@@]13C[C@@H](C(=O)Nc4nc(Br)ccc4C)N(C(=O)C2)[C@@H]1C3
ring closure, yield after HPLC ([2]; from C=CCCCNC(=O)Nc1ccc2c(C(C)=O)nn(CC(=O)N3[C@H](C(=O)Nc4nc(Br)ccc4C)C[C@@]4(COCC=C)C[C@@H]34)c2c1, 20-membered ring, 1.6 mM, 16.0 h): 2.1%

CC(=O)c1nn2c3cc(ccc13)NC(=O)OCCCC=CCOC[C@@]13C[C@@H](C(=O)Nc4nc(Br)ccc4C)N(C(=O)C2)[C@@H]1C3
ring closure, yield after HPLC ([2]; from C=CCCCOC(=O)Nc1ccc2c(C(C)=O)nn(CC(=O)N3[C@H](C(=O)Nc4nc(Br)ccc4C)C[C@@]4(COCC=C)C[C@@H]34)c2c1, 20-membered ring, 2.0 mM, 2.0 h): 68.5%

CN1CCCCCC=C[C@@]23C[C@@H](C(=O)Nc4nc(Br)ccc4C1)N(C(=O)OC(C)(C)C)[C@@H]2C3
ring closure, isolated yield ([1]; from C=CCCCCCN(C)Cc1ccc(Br)nc1NC(=O)[C@@H]1C[C@@]2(C=C)C[C@H]2N1C(=O)OC(C)(C)C, 16-membered ring, Grubbs II, 1.78 mM, 16.0 h): 72.4%

CC(=O)c1nn2c3c(cc(-c4cnc(C)nc4)cc13)CCC=CCCCC(=O)NC[C@@]13C[C@@H](C(=O)Nc4nc(Br)ccc4C)N(C(=O)C2)[C@@H]1C3
ring closure, yield after HPLC ([2]; from C=CCCCC(=O)NC[C@@]12C[C@@H](C(=O)Nc3nc(Br)ccc3C)N(C(=O)Cn3nc(C(C)=O)c4cc(-c5cnc(C)nc5)cc(CCC=C)c43)[C@@H]1C2, 17-membered ring, 7.0 mM, 2.5 h): 15.8%
ring closure, yield after HPLC ([2]; from C=CCCCC(=O)NC[C@@]12C[C@@H](C(=O)Nc3nc(Br)ccc3C)N(C(=O)Cn3nc(C(C)=O)c4cc(-c5cnc(C)nc5)cc(CCC=C)c43)[C@@H]1C2, 18-membered ring, 7.0 mM, 2.5 h): 11.6%

CC(=O)c1nn2c3c(cc(-c4cnc(C)nc4)cc13)CCCCC=CCc1cccc(n1)OC[C@@]13C[C@@H](C(=O)Nc4nc(Br)ccc4C)N(C(=O)C2)[C@@H]1C3
ring closure, yield after HPLC ([2]; from C=CCCCCc1cc(-c2cnc(C)nc2)cc2c(C(C)=O)nn(CC(=O)N3[C@H](C(=O)Nc4nc(Br)ccc4C)C[C@@]4(COc5cccc(CC=C)n5)C[C@@H]34)c12, 1.6 mM, 16.0 h): 78.1%
